Patent publication US4308276A, “Inhibiting lipogenesis with benzoxathiincarboxamides” (Shell Oil Company, priority 1978, dated 1981)

Test system: swine adipose tissue
Experiment: Inhibition of lipogenesis (uptake of radioactive carbon from glucose-U^14 C into lipid) in swine adipose tissue slices
Assay type: cell-based
Conditions: 100 micrograms per milliliter, 37° C., 2 hours, 5% DMSO, with insulin, triplicate
Description: The manner in which they cause this effect is not known with certainty; it is believed that they interfere with the synthesis of fatty acids in the tissues. Their effectiveness for this purpose has been ascertained by immersing samples of swine adipose tissue in a liquid medium containing radioactive glucose and the test chemical for a period of time, then isolating the lipid from the treated tissue and determining the up-take of the radioactive carbon by means of scintillation counting techniques. These tests were conducted in swine adipose tissue because in swine, the primary site of lipogenesis--i.e., fatty acid synthesis--appears to be adipose tissue.
Described in more detail, the tests were conducted according to the following general procedure.
150 milligrams of slices of swine adipose tissue were incubated at 37° C. for 2 hours with shaking in 3 milliliters of Krebs-Ringer bicarbonate solution containing one-half the normal calcium ion concentration, 60 micromoles of glucose, 0.5 micro-Curie of glucose-U^14 C, and 300 microunits of insulin, and 5% dimethyl sulfoxide (DMSO). The test compounds were added as a solution or suspension in DMSO and were present at a concentration of 100 micrograms per milliliter of the incubation mixture.
The incubation was terminated by addition of 0.25 milliliter of 1 N sulfuric acid. The resulting mixture was extracted with a total of 25 milliliters of chloroform:methanol (2:1, v/v). The extracts were washed according to Folch et al. (J. Biol. Chem., 226, 497-509, (1957)), air dried, and counted in a liquid scintillation counter with 15 milliliters of counting fluid (two parts toluene containing 0.4% w/v New England Nuclear Omnifluor: 1 part Triton X-100). The tests were conducted in triplicate and were accompanied by control tests in which all ingredients,proportions and conditions were the same except that no test compound was included. From the data obtained were calculated the percent inhibition of lipid synthesis by the test compound in each case. The data obtained from the tests are set out in Table 1, as the percent inhibition of lipogenesis compared to the results obtained in the control tests wherein only the test compound was omitted.

Point of comparison: `C=CCNC(=O)C1CSc2cc(Cl)ccc2O1` (centres unmarked) [Compound 3, 6-Chloro-2,3-dihydro-N-(2-propenyl)-1,4-benzoxathiin-2-carboxamide], “Percent Inhibition (of lipogenesis compared to control tests)” value 54%. Against it:
- C=CCNC(=O)C1CSc2cc([N+](=O)[O-])ccc2O1 (centres unmarked) [Compound 5, 6-Nitro-2,3-dihydro-N-(2-propenyl)-1,4-benzoxathiin-2-carboxamide] — lower, 45%
- C=CCNC(=O)C1CSc2cc(C)ccc2O1 (centres unmarked) [Compound 2, 2,3-Dihydro-6-methyl-N-(2-propenyl)-1,4-benzoxathiin-2-carboxamide] — higher, 63%
- C=CCNC(=O)C1CSc2cc(NS(C)(=O)=O)ccc2O1 (centres unmarked) [Compound 7, 6-Methylsulfonamido-3,4-dihydro-N-(2-propenyl)-1,4-benzoxathiin-2-carboxamide] — lower, 46%
- C=CCNC(=O)C1CSc2cc(C(F)(F)F)ccc2O1 (centres unmarked) [Compound 4, 6-(Trifluoromethyl)-2,3-dihydro-N-(2-propenyl)-1,4-benzoxathiin-2-carboxamide] — lower, 30%
- C=CCNC(=O)C1CSc2ccc(C)cc2O1 (centres unmarked) [Compound 8, 2,3-Dihydro-7-methyl-N-(2-propenyl)-1,4-benzoxathiin-2-carboxamide] — lower, 26%
- C=CCNC(=O)C1CSc2ccccc2O1 (centres unmarked) [Compound 1, 2,3-Dihydro-N-(2-propenyl)-1,4-benzoxathiin-2-carboxamide] — higher, 63%
- C=CCNC(=O)C1CSc2cc(N)ccc2O1 (centres unmarked) [Compound 6, 6-Amino-2,3-dihydro-N-(2-propenyl)-1,4-benzoxathiin-2-carboxamide] — lower, 29%
